Measured values as given in patent US20240300959A1, “BALASUBRAMIDE DERIVATIVE AND USE THEREOF IN PREPARATION OF MEDICINE FOR TREATING ACUTE LUNG INJURY” (Guangdong Pharmaceutical University, priority 2023, published 2024).
Read-outs that look alike come from different tables or passages of the source.

Columns and labels:
[1] = tested on: mice with acute lung injury caused by intratracheal instillation of lipopolysaccharide; assay: Intratracheal LPS acute lung injury: wet/dry ratio, BALF TNF-α, total protein, myeloid cells; format: in vivo, ICR mice
Experimental: Grouping and administration of animals: 50 male ICR mice were randomly divided into 3 groups according to the body weight, including a control group, a model group and a 50 mg/kg (+)3C-20 group. Drug preparation, administration and a modeling method were the same as those in Example 7. After continuous preadministration for 3 days, intratracheal instillation of LPS was performed for modeling 2 h after the last administration. 6 h after the modeling, a part of the mice were directly sacrificed, the whole lungs were taken out and weighed to obtain wet weight, then the whole lungs were dried at 60° C. for 24 h and weighed to obtain dry weight, and the wet-dry weight ratio of each group was calculated by statistics. 6 h after the modeling, the remaining mice were subjected to bronchoalveolar lavage, and then bronchoalveolar lavage fluid (BALF) was collected. A lavage process was as follows: After being sacrificed, the mice were placed faceup to fix the four limbs, the skin of the neck was cut, the trachea was separated and cut at an appropriate position to obtain a small incision, a 16G needle with a flat tip was inserted into the trachea at a depth of 1 cm, the trachea and the needle stem were tied tightly to obtain an indwelling needle, 400 μL of precooled PBS was sucked with a 1 mL syringe and slowly pushed into the trachea, suction was performed for two times, the operations above were repeated, and recovered BALF was combined with a recovery efficiency of 70%-80%. The collected BALF was subjected to centrifugation at 500×g at 4° C. for 5 min, a supernatant was collected, the content level of total protein in the supernatant was determined by a BCA kit, and the expression level of an inflammatory factor TNF-α in the BALF supernatant was detected according to an operation instruction of a commercial ELISA kit.
A bottom precipitate obtained after the centrifugation of the BALF was resuspended with 100 μL of an ACK buffer (Thermo A10492 stomatocytosis agent), evenly blown and subjected to standing for 1 min. Stomatocytosis was stopped with 1 mL of an FACS buffer (PBS containing 1% of FBS), centrifugation was performed at 500×g at 4° C. for 5 min, a supernatant was discarded, 100 μL of an FACS buffer was added, 1 μL of a CD16/CD32 Fc Block antibody (1:100) was added, and incubation was performed in the dark at 4° C. for 30 min. 1 mL of an FACS buffer was added, centrifugation was performed at 500×g at 4° C. for 5 min, a supernatant was discarded, and 100 μL of an FACS buffer was added for resuspension. Various fluorescent dyes (including mCD45-PerCP-Cy5.5, mCD11b-FITC, mF4/80-APC, mLy6C-PE, mLy6G-BV421 and FVS-780) were added at a ratio of 1:300, a single dye tube of each of the fluorescent dyes was prepared according to the above ratio, and incubation was performed in the dark at 4° C. for 30 min. 1 mL of an FACS buffer was added for resuspension, centrifugation was performed at 500×g at 4° C. for 5 min, and a supernatant was discarded. Washing was repeated for one time, centrifugation was performed to remove a supernatant, 500 μL of 1% paraformaldehyde was added for fixing in the dark for 30 min, centrifugation was performed at 500×g at 4° C. for 5 min, and a supernatant was discarded. 200 μL of an FACS buffer was added for resuspension, and a resulting suspension was stored in the dark at 4° C. Before loading on a machine, the stained cell suspension was diluted with an FACS buffer, transferred to a flow tube and detected according to an operation procedure of a CytoFlex flow cytometer. A flow gate strategy was as follows: Gain was first regulated according to each single dye tube, and compensation was properly regulated, where CD45^+, CD11b^+ and F4/80^+ were macrophages, CD45^+, CD11b^+ and Ly6G^+ were neutrophils, and CD45^+, CD11b^+ and Ly6C^+ were monocytes.

[2] = tested on: TNF-α in RAW264.7 macrophages stimulated by lipopolysaccharide; assay: TNF-α ELISA in cell supernatant of LPS-stimulated RAW264.7 macrophages; format: cell-based, mice
Experimental: RAW264.7 cells were inoculated into a 96-well plate at a density of 1×10^5 per well. When the cell density was 70%-80%, 18 balasubramide derivatives were prepared into 10 mM working solutions with DMSO, respectively, and then used to pretreat mononuclear macrophages RAW264.7 of mice at a final concentration of 10 μM. After 3 h, lipopolysaccharide (LPS, 100 ng/mL) was added into all wells for action for 2 h except for a control group. A supernatant was collected for later use, and the expression level of an inflammatory factor TNF-α in the cell supernatant was detected according to an operation instruction of a commercial ELISA kit.
RAW264.7 cells were inoculated into a 96-well plate at a density of 1×10^5 per well. When the cell density was 70%-80%, the RAW264.7 cells were pretreated with (+)3C-20 ([…]). After 3 h, lipopolysaccharide (LPS, 100 ng/mL) was added into all wells for action for 2 h except for a control group. The expression level of an inflammatory factor TNF-α in a cell supernatant was detected according to an operation instruction of a commercial ELISA kit, and the cell viability at different administration concentrations of (+)3C-20 was determined according to an operation instruction of a CCK-8 kit.

[3] = 50 mg/kg i.p. 3 days, 6 h after intratracheal LPS, model group = 100

## O=C(CCc1ccc(C(F)(F)F)cc1)O[C@@H]1C(=O)NCCc2c([nH]c3ccccc23)[C@H]1c1ccc(C(F)(F)F)cc1 [(+)-3C-20]
[1]; [3]
  Level of TNF-α in BALF: 43.31
  Level of total protein in BALF: 73.44
[1]; 50 mg/kg i.p. 3 days, lung, 6 h after intratracheal LPS
  Wet/Dry ratio: 4.28
[1]; 50 mg/kg i.p., BALF flow cytometry CD45+ CD11b+ F4/80+
  Macrophage (%): 0.82%
[1]; 50 mg/kg i.p., BALF flow cytometry CD45+ CD11b+ Ly6C+
  Monocyte (%): 4.13%
[1]; 50 mg/kg i.p., BALF flow cytometry CD45+ CD11b+ Ly6G+
  Neutrophil (%): 10.47%
[2]; 10 μM, RAW264.7, LPS
  anti-inflammatory activity (inhibition of expression of TNF-α in macrophages), in words: better anti-inflammatory activity than other derivatives
[2]; Mus musculus, RAW264.7, 0.1 μM, RAW264.7, LPS 100 ng/mL, read-out: Percentage of TNF-α in a model group (%)
  activity at 0.1 µM: 99.83 ± 0.89%
[2]; Mus musculus, RAW264.7, 0.5 μM, RAW264.7, LPS 100 ng/mL, read-out: Percentage of TNF-α in a model group (%)
  activity at 0.5 µM: 98.1 ± 1.56%
[2]; Mus musculus, RAW264.7, 1 μM, RAW264.7, LPS 100 ng/mL, read-out: Percentage of TNF-α in a model group (%)
  activity at 1 µM: 94.38 ± 0.45%
[2]; Mus musculus, RAW264.7, 2 μM, RAW264.7, LPS 100 ng/mL, read-out: Percentage of TNF-α in a model group (%)
  activity at 2 µM: 88.6%
[2]; Mus musculus, RAW264.7, 5 μM, RAW264.7, LPS 100 ng/mL, read-out: Percentage of TNF-α in a model group (%)
  activity at 5 µM: 83.7%
[2]; Mus musculus, RAW264.7, 10 μM, RAW264.7, LPS 100 ng/mL (Table 3), read-out: Percentage of TNF-α in a model group (%)
  activity at 10 µM: 51.2%
[2]; Mus musculus, RAW264.7, 20 μM, RAW264.7, LPS 100 ng/mL, read-out: Percentage of TNF-α in a model group (%)
  activity at 20 µM: 39.4%
[2]; Mus musculus, RAW264.7, 2 h, 10 μM, 3 h pretreatment, LPS 100 ng/mL 2 h, RAW264.7, read-out: Percentage of TNF-α in a model group (%)
  activity at 10 µM: 39.9 ± 2.88%
[2]; RAW264.7, LPS
  effective dose for inhibiting the expression of TNF-α in the macrophages: 2 to 20 µM
